Experimental data taken from patent US20240417410A1, “TRICYCLIC COMPOUNDS FOR THE TREATMENT OF CANCER” (Hoffmann-La Roche Inc., priority 2023, published 2024).
Read-outs that look alike come from different tables or passages of the source.

Key:
Experiment in all cases: Cell proliferation, CTG 3D, 7 d
Format in all cases: cell-based
A549 = details: Homo sapiens
Outline: (§1)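 Luminescent ATP signal (CellTiter-Glo 3D) measured spheroid viability after a 7-day compound exposure. Dosing used nine 3-fold dilutions at 0.2% DMSO in ultra-low-adhesion plates. Inhibition was normalized to max and min controls and fitted for relative IC50.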

Calu-6 = details: Homo sapiens
Outline: as §1

DLD-1 = details: Homo sapiens
Outline: as §1

DV-90 = details: Homo sapiens
Outline: as §1

GA-10 = details: Homo sapiens; GA-10, NRAS (p.G12V)
Outline: as §1

GAK = details: Homo sapiens
Outline: as §1

H9 = details: Homo sapiens
Outline: as §1

HCC-15 = details: Homo sapiens, HCC15
Outline: as §1

HCT-116 = details: Homo sapiens
Outline: as §1

HCT-8 = details: Homo sapiens
Outline: as §1

KU1919 = details: Homo sapiens, KU-19-19
Outline: as §1

KYSE-30 = details: Homo sapiens
Outline: as §1

MDA-MB-134-VI = details: Homo sapiens
Outline: as §1

MKN-1 = details: Homo sapiens; MKN-1, KRAS (WT ampl)
Outline: as §1

Mia-pa-ca-2 = details: Homo sapiens, MIA PaCa-2; Mia-pa-ca-2, KRAS (G12C)
Outline: as §1

NCI-H1915 = details: Homo sapiens
Outline: as §1

NCI-H2444 = details: Homo sapiens; NCI-H2444, KRAS (G12V)
Outline: as §1

NCI-H441 = details: Homo sapiens; NCI-H441, KRAS (G12V)
Outline: as §1

Panc 02.03 = details: Homo sapiens; Panc 02.03, KRAS (G12D)
Outline: as §1

RL95-2 = details: Homo sapiens
Outline: as §1

SJSA-1 = details: Homo sapiens
Outline: as §1

SW1271 = details: Homo sapiens
Outline: as §1

SW620 = details: Homo sapiens, SW-620; SW620, KRAS (G12V)
Outline: as §1

T24 = details: Homo sapiens, T-24; T24, HRAS (p.G12V)
Outline: as §1

T84 = details: Homo sapiens
Outline: as §1

TF-1 = details: Homo sapiens
Outline: as §1

TOV-21G = details: Homo sapiens, TOV21G
Outline: as §1

Which results are given for `CO[C@@H](C)c1ncc(N2CCN(C)CC2)cc1-c1c2c3cc(cc4c3n1CCC4)-c1csc(n1)C[C@H](NC(=O)[C@H]1[C@H](C)[C@@H]1C)C(=O)N1CCC[C@H](N1)C(=O)OCC(C)(C)C2` (atropisomer, axis not shown; (M)) [Example 24, (1r,2R,3S)-N-[(7S,13S)-(20M)-20-[2-[(1S)-1-methoxyethyl]-5-(4-methylpiperazin-1-yl)-3-pyridyl]-17,17-dimethyl-8,14-dioxo-15-oxa-4-thia-9,21,30,31-tetrazahexacyclo[23.3.1.1^2,5.1^9,13.0^19,27.0^21,26]hentriaconta-1 (28),2,5 (31), 19,25 (29),26-hexaen-7-yl]-2,3-dimethyl-cyclopropanecarboxamide]?
IC50 (A549; A549, KRAS (G12S), read-out: IC50): 0.72 nM; IC50 (Calu-6; Calu-6, KRAS (Q61K), read-out: IC50): 0.65 nM; IC50 (DLD-1; DLD-1, KRAS (G13D), read-out: IC50): 18 nM; IC50 (DV-90; DV-90, KRAS (G13D), read-out: IC50): 3.9 nM; IC50 (GA-10): 1000 nM; IC50 (GAK; GAK, NRAS (p.Q61L), read-out: IC50): 10 nM; IC50 (H9; H9, NRAS (p.Q61K), read-out: IC50): 0.72 nM; IC50 (HCC-15; HCC-15, NRAS (p.Q61K), read-out: IC50): 0.68 nM; IC50 (HCT-116; HCT-116, KRAS (G13D), read-out: IC50): 1.9 nM; IC50 (HCT-8; HCT-8, KRAS (G13D), read-out: IC50): 80 nM; IC50 (KU1919; KU1919, NRAS (p.Q61R), read-out: IC50): 2.2 nM; IC50 (KYSE-30; KYSE-30, HRAS (p.Q61L), read-out: IC50): 0.46 nM; IC50 (MDA-MB-134-VI; KRAS (G12R), read-out: IC50): 1.5 nM; IC50 (MKN-1): 28 nM; IC50 (Mia-pa-ca-2): 0.064 nM; IC50 (NCI-H1915; NCI-H1915, HRAS (p.Q61L), read-out: IC50): 3.6 nM; IC50 (NCI-H2444): 0.17 nM; IC50 (NCI-H441): 0.25 nM; IC50 (Panc 02.03): 3.2 nM; IC50 (RL95-2; RL95-2, HRAS (p.Q61H), read-out: IC50): 1.3 nM; IC50 (SJSA-1; SJSA-1, KRAS (Q61H), read-out: IC50): 2.6 nM; IC50 (SW1271; SW1271, NRAS (p.Q61R), read-out: IC50): 1.7 nM; IC50 (SW620): 0.1 nM; IC50 (T24): 0.3 nM; IC50 (T84; T84, KRAS (G13D), read-out: IC50): 100 nM; IC50 (TF-1; TF-1, NRAS (p.Q61P), read-out: IC50): 130 nM; IC50 (TOV-21G; TOV-21G, KRAS (G13C), read-out: IC50): 4.9 nM

With `CCn1c(-c2cc(N3CCN(C)CC3)cnc2[C@H](C)OC)c2c3cc(ccc31)-c1csc(n1)C[C@H](NC(=O)[C@H]1C[C@@H]1C)C(=O)N1CCC[C@H](N1)C(=O)OCC(C)(C)O2` [Example A122, reference compound] as the compound, how does the IC50 (A549; A549) read?
Its IC50 is 1.1 nM.

What about the IC50 (Calu-6; Calu-6) of the same compound?
Its IC50 is 1.3 nM.

What about the IC50 (DLD-1; DLD-1) of the same compound?
The IC50 was 20 nM.

What about the IC50 (DV-90; DV-90) of the same compound?
Its IC50 is 4.7 nM.

And the IC50 (GA-10)?
The IC50 was 1000 nM.

And the IC50 (GAK)?
The IC50 was 19 nM.

And the IC50 (H9; H9)?
Its IC50 is 1.6 nM.

And the IC50 (HCC-15)?
Its IC50 is 1.7 nM.

And the IC50 (HCT-116; HCT-116)?
The IC50 was 1.9 nM.

What about the IC50 (HCT-8; HCT-8) of the same compound?
Its IC50 is 69 nM.

What about the IC50 (KU1919) of the same compound?
The IC50 was 2.8 nM.

And the IC50 (KYSE-30; KYSE-30)?
The IC50 was 1 nM.

And the IC50 (MDA-MB-134-VI)?
The IC50 was 2.6 nM.

What about the IC50 (MKN-1) of the same compound?
Its IC50 is 40 nM.

And the IC50 (Mia-pa-ca-2)?
The IC50 was 0.082 nM.

And the IC50 (NCI-H1915; NCI-H1915)?
The IC50 was 10 nM.

What about the IC50 (NCI-H2444) of the same compound?
The IC50 was 0.29 nM.

And the IC50 (NCI-H441)?
Its IC50 is 0.49 nM.

What about the IC50 (Panc 02.03) of the same compound?
Its IC50 is 5.2 nM.

What about the IC50 (RL95-2; RL95-2) of the same compound?
The IC50 was 2.6 nM.

And the IC50 (SJSA-1; SJSA-1)?
The IC50 was 3.1 nM.

What about the IC50 (SW1271; SW1271) of the same compound?
The IC50 was 3 nM.

And the IC50 (SW620)?
Its IC50 is 0.23 nM.

What about the IC50 (T24) of the same compound?
Its IC50 is 0.57 nM.

And the IC50 (T84; T84)?
Its IC50 is 100 nM.

What about the IC50 (TF-1; TF-1) of the same compound?
Its IC50 is 100 nM.

What about the IC50 (TOV-21G) of the same compound?
Its IC50 is 33 nM.
